The series in a line: Apparent permeability across apical to basolateral side in human Caco-2 cells measured after 60 to 120 mins. To be noted: time 60-120 min. Format: ADME, cell-based.

Take `CC(C)CN1CC(=O)N[C@@H](Cc2ccccc2)C(=O)NCCC[C@@H](C)C(=O)N[C@@H](C)C1=O`: the permeability result is listed as “Permeable”.

The record behind these values is ChEMBL document CHEMBL5036305, “Modulation of the Passive Permeability of Semipeptidic Macrocycles: N- and C-Methylations Fine-Tune Conformation and Properties” (J Med Chem, 2021).
